Measurements as given in US6444821B1, “Crystals of piperidine derivatives, intermediates for production of the same, and process for producing the same” (Ajinomoto Co., Inc., priority 1995, dated 2002).
Structures can show the parent of a compound that is named as a salt.

Key:
[1] = Storage stability of crystals; assay type: physicochemical; conditions: storage for 1 month
From the text: Still further, the monohydrate and trihydrate crystals of the present invention can be easily produced from α-type anhydride crystals and β-type anhydride crystals.

[2] = Oral bioavailability in Beagle dog (plasma AUC oral vs intravenous); assay type: in vivo; conditions: 3.0 mg/kg, plasma sampled 30 minutes to 24 hours
Procedure: Each of the monohydrate and trihydrate crystals of Compound (I) produced in Examples 4 and 6 was orally administered to a Beagle dog at a dose of 3.0 mg/kg. After 30 minutes, 1 hour, 2 hours, 3 hours, 4 hours, 6 hours, 8 hours and 24 hours of the administration, the blood was collected, the concentration of Compound (I) in the plasma was measured, and the area under plasma concentration curve (AUC) was obtained.

[3] = Dissolution rate in gastric juice model solution (JP-1 solution); assay type: physicochemical; conditions: 20 mg crystals in 500 ml JP-1 solution, 37° C., FIG. 9
Procedure: Each 20 mg of the monohydrate and trihydrate crystals of Compound (I) produced in Examples 4 and 6 was added to 500 ml of a gastric juice model solution (JP-1 solution according to Japan Pharmacopeia) of 37° C., and the concentration of Compound (I) in the solution was measured over the course of time.

Row | SMILES | stability (chemical and physical) on storage [1] | bioavailability (ratio of the AUC value of oral administration to that of intravenous administration) ([2]; hydrochloride monohydrate) | dissolution rate [3] | bioavailability (ratio of the AUC value of oral administration to that of intravenous administration) ([2]; hydrochloride trihydrate)
1 | O=CN1CCC(C(=O)NCCN2CCC(=C3c4ccccc4C=Cc4ccccc43)CC2)CC1 [monohydrate crystals, N-(2-(4-(5H-dibenzo(a,d)cyclohepten-5-ylidene)-piperidino)ethyl)-1-formyl-4-piperidinecarboxamide hydrochloride monohydrate] | unchanged even after storage for 1 month | 73.4% |  | 
2 | O=CN1CCC(C(=O)NCCN2CCC(=C3c4ccccc4C=Cc4ccccc43)CC2)CC1 [trihydrate crystals, N-(2-(4-(5H-dibenzo[a,d]cyclohepten-5-ylidene)-piperidino)ethyl)-1-formyl-4-piperidinecarboxamide hydrochloride trihydrate] |  |  | high dissolution rate compared to the monohydrate crystals | 49.6%
